Earlier results, collected in US7094805B2, “Total synthesis of merrilactone A” (The Trustees of Columbia University in the City of New York, priority 2001, dated 2006).

Test system: fetal rat cortical neurons

C[C@@]12COC(=O)[C@]1(C)[C@@H]1O[C@]3(C)[C@@H](O)C[C@]24OC(=O)C[C@]143 (racemic) [compound 1, merrilactone A]
promotion of neurite outgrowth (general statement): promote neurite outgrowth | concentrations at which neurite outgrowth is greatly promoted (preliminary studies, natural merrilactone A, "at concentrations as low as"): 0.1 to 10 µmol
